According to patent US20180228827A1, “FIXED-DOSE COMBINATIONS OF ANTIVIRAL COMPOUNDS” (MERCK SHARP & DOHME CORP., priority 2015, published 2018):

Assay: pH-dependent solubility profile of Compound II
Type: physicochemical
Settings: particularly between pH 1-4

solubility profile: sharp pH-dependent solubility profile
SMILES: COC(=O)N[C@H](C(=O)N1CCC[C@H]1c1ncc(-c2cc(F)c3c(c2)O[C@@H](c2cnc(C4CC4)s2)n2c-3cc3cc(-c4cnc([C@@H]5CCCN5C(=O)[C@@H](NC(=O)OC)C(C)C)[nH]4)ccc32)[nH]1)C(C)C [Compound II, dimethyl ((2S,2′S)-((2S,2′S)-2,2′-(5,5′-((S)-6-(2-cyclopropylthiazol-5-yl)-1-fluoro-6H-benzo[5,6][1,3]oxazino[3,4-a]indole-3,10-diyl)bis(1H-imidazole-5,2-diyl))bis(pyrrolidine-2,1-diyl))bis(3-methyl-1-oxobutane-2,1-diyl))dicarbamate]
